{
  "source": "patent US9458165B2",
  "about": "“DOT1L inhibitors” (Dana-Farber Cancer Institute, Inc., priority 2014, dated 2016)",
  "type_in_all_cases": "cell-based",
  "key": {"MV4:11 cell line": {"tested_on": "MV4:11 cell line", "test": "Anti-proliferation study", "conditions": "compared to CC001, FIG. 7"}, "HL60": {"tested_on": "HL60", "test": "Cellular activity in HL60 cell line (FIG. 10B)", "conditions": "compared to EPZ4777, FIG. 10B"}, "H3K27Me3 mark": {"tested_on": "H3K27Me3 mark", "test": "Western blot assay", "conditions": "compared to EPZ004777 and CC001, FIG. 5"}, "the related gene": {"tested_on": "the related gene", "test": "Gene expression assay", "conditions": "compared to CC001 and EPZ4777, FIG. 6"}},
  "data": [
    {"compound": "CC(C)N(C[C@H]1C[C@@H](n2cc(C#N)c3c(N)ncnc32)[C@H](O)[C@@H]1O)C1CC(CCc2nc3ccc(C(C)(C)C)cc3[nH]2)C1", "note": "(stereo partly drawn) [Example 1, 4-amino-7-((1R,2S,3R,4R)-4-(((3-(2-(6-(tert-butyl)-1H-benzo[d]imidazol-2-yl)ethyl)cyclobutyl)(isopropyl)amino)methyl)-2,3-dihydroxycyclopentyl)-7H-pyrrolo[2,3-d]pyrimidine-5-carbonitrile]", "values": [
      {"measurement": "anti-proliferation activity", "setting": "MV4:11 cell line", "result": "greater than known DOT1L inhibitor CC001"},
      {"measurement": "cellular activity on HL60", "setting": "HL60", "result": "but not on HL60"},
      {"measurement": "reduction of H3K27 trimethylation", "setting": "H3K27Me3 mark", "result": "can reduce the H3K27 trimethylation at much lower dose compared to known DOT1L inhibitors EPZ004777 (structure shown below) and CC001"},
      {"measurement": "down regulation of the related gene", "setting": "the related gene", "result": "down regulates the related gene more efficiently than known DOT1L inhibitor CC001 and very similar to EPZ4777"}
    ]}
  ]
}
